Laboratory results from US9517227B2, “Dihydropyrazoles” (Merck Patent GmbH, priority 2011, dated 2016).

Key:
[1] = molecular target: T1, follicle-stimulating hormone (FSH) receptor (Rattus norvegicus, UniProt P20395); experiment: Rat granulosa EC50 FSH (Assay B); assay type: cell-based; conditions: rat granulosa cells; for EC50: per Yanofsky et al. 2006
T1 construct: endogenous in cells; host or cells: rat granulosa cells
T1 sequence (P20395 18-692): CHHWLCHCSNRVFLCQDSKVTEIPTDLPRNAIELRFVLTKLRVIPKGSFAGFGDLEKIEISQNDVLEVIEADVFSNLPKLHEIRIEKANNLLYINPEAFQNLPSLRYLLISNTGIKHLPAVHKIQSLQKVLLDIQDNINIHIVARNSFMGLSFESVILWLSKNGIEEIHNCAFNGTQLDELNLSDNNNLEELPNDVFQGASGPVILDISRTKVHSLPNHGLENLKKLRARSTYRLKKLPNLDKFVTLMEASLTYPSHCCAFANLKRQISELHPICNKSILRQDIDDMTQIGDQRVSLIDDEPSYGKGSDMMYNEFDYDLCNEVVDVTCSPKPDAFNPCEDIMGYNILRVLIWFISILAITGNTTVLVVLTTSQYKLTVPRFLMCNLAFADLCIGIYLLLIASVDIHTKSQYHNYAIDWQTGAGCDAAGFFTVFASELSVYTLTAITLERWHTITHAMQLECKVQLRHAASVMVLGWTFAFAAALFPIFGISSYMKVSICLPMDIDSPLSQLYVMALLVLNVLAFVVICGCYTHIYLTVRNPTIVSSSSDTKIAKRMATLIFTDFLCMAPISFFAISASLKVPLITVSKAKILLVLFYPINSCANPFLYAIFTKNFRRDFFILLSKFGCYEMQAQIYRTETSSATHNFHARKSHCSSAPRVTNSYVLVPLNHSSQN
Experimental: Rat Granulosa EC50 FSH (Assay B)
The assay was performed pursuant to the teaching of Yanofsky et al. (2006) Allosteric activation of the follicle-stimulating hormone (FSH) receptor by selective, nonpeptide agonists. JBC 281(19): 13226-13233, which is incorporated by reference in the disclosure of the invention.

FSHR = molecular target: T2, FSHR (Homo sapiens, UniProt P23945); experiment: EC50 of cyclic AMP production in CHO FSHR cells + EC20 FSH (Assay A); assay type: cell-based; conditions: CHO-FSHR-LUC cells, 0.265 pM FSH (EC20), cAMP HTRF, 1 h
T2 construct: expressed in transfected cells; host or cells: CHO (Cho-FSHR-LUC-1-1-43)
T2 sequence (P23945 18-695): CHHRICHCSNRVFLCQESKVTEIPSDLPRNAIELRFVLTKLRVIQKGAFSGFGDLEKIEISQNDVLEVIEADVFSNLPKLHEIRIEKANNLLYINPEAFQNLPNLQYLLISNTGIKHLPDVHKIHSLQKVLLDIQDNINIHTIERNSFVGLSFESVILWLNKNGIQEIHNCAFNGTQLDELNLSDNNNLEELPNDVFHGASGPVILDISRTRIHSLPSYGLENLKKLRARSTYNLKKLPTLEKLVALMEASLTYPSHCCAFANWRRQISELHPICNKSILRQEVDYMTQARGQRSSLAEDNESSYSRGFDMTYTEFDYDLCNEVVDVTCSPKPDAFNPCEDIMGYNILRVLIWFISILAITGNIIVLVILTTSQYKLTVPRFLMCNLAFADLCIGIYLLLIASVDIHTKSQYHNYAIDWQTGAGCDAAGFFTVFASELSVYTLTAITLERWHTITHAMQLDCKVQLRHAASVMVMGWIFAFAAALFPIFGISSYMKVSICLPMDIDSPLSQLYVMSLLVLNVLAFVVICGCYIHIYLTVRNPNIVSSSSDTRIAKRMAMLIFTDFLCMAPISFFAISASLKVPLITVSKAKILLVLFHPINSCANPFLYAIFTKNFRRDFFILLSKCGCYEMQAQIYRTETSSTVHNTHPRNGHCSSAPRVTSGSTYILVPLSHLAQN
Experimental: EC50 of Cyclic AMP Production in CHO FSHR Cells+EC20 FSH (Assay A)
2500 Cho-FSHR-LUC-1-1-43 cells were plated per well in 5 μl of phenol red free DMEM/F12+1% FBS. Cells were plated in 384 well, solid white low volume plates (Greiner 784075) by Multidrop. Cells were assayed by adding 100 μl of 2×EC20 FSH/IBMX in DMEM/F12+0.1% BSA) by Multidrop to 2 μl of test compound stamped in 384 well plates (compounds are diluted 1:50). The final FSH concentration was 0.265 pM, and the final IBMX concentration was 200 μM. The compound plate map was as follows: Column 1: 2 μl of DMSO; Column 2: 2 μl of DMSO; Columns 3-12 and 13-24: 2 μl of test compound, diluted 1:4 in 100% DMSO, or 2 μl of FSH, diluted 1:4 in DMEM/F12+0.1% BSA. The starting concentration for FSH was 50 nM (final concentration was 0.5 nM). Furthermore, Column 23 contained 2 μl of EC100 FSH reference (100×) (diluted in DMEM/F12+0.1% BSA) at a final concentration of 0.5 nM, and Column 24 contained 2 μl of 1 mM AS707664/2 reference compound 2. 5 μl of compound+EC20 FSH mixture were transferred to cell plates (1:2 dilution into 5 μl of cell media). The plates were incubated at 37° C. for 1 h. 10 μl of mixed HTRF (CisBio #62AM4PEC) reagents were added per well and incubated at room temperature for 1 h. The plates were read on Envision using the cAMP HTRF—low volume 384 well protocol. The readout was the calculated fluorescence ratio (665 nm/620 nm).

SMILES | Assay B: value given in % (rat granulosa) ([1]; meaning of % not stated) | EC50 (FSHR) | EC50 [1]
COc1ccc(C2=NN(C(=O)[C@@H](OC)c3ccccc3)CC2)cc1OC [Compound 292] | 186.00% | 29 µM | 
COc1ccc(C2=NN(C(=O)c3cccc(Oc4ccccc4)c3)CC2)cc1OC [Compound 70] |  | 39 µM | 0.11 µM
COc1ccc(C2=NN(C(=O)c3cccc(F)c3F)CC2)cc1OC [Compound 77] |  | 8.61 µM | 0.729 µM
COc1ccc(C2=NN(C(=O)c3ccc(C)cc3)C(C)(C)C2)cc1OC [Compound 235, [3-(3,4-Dimethoxy-phenyl)-5,5-dimethyl-4,5-dihydro-pyrazol-1-yl]-p-tolyl-methanone] |  | 35.7 µM | 0.538 µM
COc1ccc(C2=NN(C(=O)c3cccc(C)c3)C(C)(C)C2)cc1OC [Compound 232, [3-(3,4-Dimethoxy-phenyl)-5,5-dimethyl-4,5-dihydro-pyrazol-1-yl]-m-tolyl-methanone] |  | 38.7 µM | 0.572 µM
COc1ccc(C2=NN(C(=O)c3ccc(C)c(F)c3)CC2)cc1OC [Compound 136] |  | 30 µM | 0.106 µM
COc1ccc(C2=NN(C(=O)c3cccc(OC(F)(F)F)c3)C(C)(C)C2)cc1OC [Compound 231, [3-(3,4-Dimethoxy-phenyl)-5,5-dimethyl-4,5-dihydro-pyrazol-1-yl]-(3-trifluoromethoxy-phenyl)-methanone] |  | 23.8 µM | 1.15 µM
COc1ccc(C2=NN(C(=O)Cc3cccc(F)c3)CC2)cc1OC [Compound 241, 1-[3-(3,4-Dimethoxy-phenyl)-4,5-dihydro-pyrazol-1-yl]-2-(3-fluoro-phenyl)-ethanone] |  | 31 µM | 0.342 µM
COc1ccc(C2=NN(C(=O)c3cccc(F)c3)CC2)cc1OC [Compound 1] |  | 16.7 µM | 0.878 µM
COc1ccc(C2=NN(C(=O)c3ccc(F)c(Cl)c3)C(C)(C)C2)cc1OC [Compound 237, (3-Chloro-4-fluoro-phenyl)-[3-(3,4-dimethoxy-phenyl)-5,5-dimethyl-4,5-dihydro-pyrazol-1-yl]-methanone] |  | 35 µM | 0.598 µM
COc1ccc(-c2ccn(C(=O)c3ccc4c(c3)OCO4)n2)cc1OC [Compound 148] |  | 2.88 µM | 3.4 µM
COc1ccc(C2=NN(C(=O)c3cc(F)c(F)c(F)c3F)CC2)cc1OC [Compound 80] |  | 28 µM | 1.19 µM
COc1ccc(C2=NN(C(=O)c3cccc(C(F)(F)F)c3)C(C)(C)C2)cc1OC [Compound 234, [3-(3,4-Dimethoxy-phenyl)-5,5-dimethyl-4,5-dihydro-pyrazol-1-yl]-(3-trifluoromethyl-phenyl)-methanone] |  | 22.4 µM | 0.699 µM
COc1ccc(C2=NN(C(=O)c3cccc(Br)c3)C(C)(C)C2)cc1OC [Compound 233, (3-Bromo-phenyl)-[3-(3,4-dimethoxy-phenyl)-5,5-dimethyl-4,5-dihydro-pyrazol-1-yl]-methanone] |  | 27.8 µM | 0.216 µM
COc1ccc(C2=NN(C(=O)c3cccc(Br)c3)CC2)cc1OC [Compound 61] |  | 9.75 µM | 0.465 µM
CCc1cccc(C(=O)N2CCC(c3ccc(OC)c(OC)c3)=N2)c1 [Compound 93] |  | 27 µM | 0.726 µM
COc1ccc(C2=NN(C(=O)c3cccc(F)c3)C(C)(C)C2)cc1OC [Compound 129, [3-(3,4-Dimethoxy-phenyl)-5,5-dimethyl-4,5-dihydro-pyrazol-1-yl]-(3-fluoro-phenyl)-methanone] |  | 35 µM | 0.363 µM
